{"source": "paper PMC11087268", "about": "“A folate inhibitor exploits metabolic differences in Pseudomonas aeruginosa for narrow-spectrum targeting” (Nature Microbiology, 2024)", "key": {"sheep red blood cells": {"system": "sheep red blood cells", "test": "Haemolysis", "type": "cell-based", "conditions": "1 h, vs Triton X-100 100% lysis", "description": "(§1) Samples were treated at 37 °C with shaking for 1 h and then centrifuged. Supernatants were collected and absorbances were measured at 405 nm in a Tecan InfiniteM200 Pro microplate reader."}, "P. aeruginosa": {"system": "P. aeruginosa", "test": "MIC of known DHFR inhibitors against P. aeruginosa", "type": "cell-based, Pseudomonas aeruginosa", "conditions": "strain not named"}, "[1]": {"system": "P. aeruginosa PA14 folate metabolism (dUMP, AICAR, GAR)", "test": "Metabolomics (LC–MS) of treated PA14", "type": "cell-based, Pseudomonas aeruginosa", "conditions": "PA14, 15 min", "description": "Metabolites were extracted by vacuum filtering 15 ml of treated cells using 0.45 μm HNWP Millipore nylon membranes and placing the filters into an ice-cold quenching solution of 40:40:20 methanol:acetonitrile:H2O. Extracts were kept on dry ice for 1 h and centrifuged at 16,000 g for 1 h at 4 °C. The supernatant was kept at -80 °C until mass spectrometry analysis. Liquid chromatography-mass spectrometry (LC-MS) analysis of metabolites was performed on an Orbitrap Exploris 240 mass spectrometer coupled with hydrophilic interaction liquid chromatography (HILIC)[68]. […] Waters 196006724), with a gradient of solvent A (95 vol. % H2O, 5 vol. % acetonitrile, with 20 mM ammonium acetate and 20 mM ammonium hydroxide, pH 9.4) and solvent B (acetonitrile). Flow rate was 0.15 ml min^-1 and column temperature was set at 25 °C. […] Raw mass spectrometry data were converted to mzXML format by MSConvert (ProteoWizard). Pick-peaking was done on […].0.8.0, Elucidata)."}, "P. aeruginosa PA14 [2]": {"system": "P. aeruginosa PA14", "test": "Colony-forming units counting after antibiotic treatment", "type": "cell-based, Pseudomonas aeruginosa", "conditions": "2× MIC (fluorofolin 6.2, TMP 250, polymixin B 4 μg ml^−1)", "description": "P. aeruginosa PA14 overnight cultures were diluted 1:100 and grown to exponential phase (OD600 = 0.4–0.6). Cultures were diluted 1:10 and treated with antibiotic. At each time point, 150 μl of culture was removed, serial diluted 1:10 six times and plated onto LB agar plates. Plates were grown overnight at 37 °C, after which visible colonies were counted. C.f.u.s ml^−1 are reported from dilutions in which ~10–100 single colonies were visible."}, "[3]": {"system": "Pseudomonas aeruginosa PA14", "test": "MIC against P. aeruginosa PA14 in LB broth", "type": "cell-based", "description": "(§2) Overnight cultures were diluted 1:150 in LB broth and added to a 96-well plate. Antibiotics were serially diluted 1:2 and added to columns of the 96-well plate and grown at 37 °C with continuous shaking. Cell growth was measured using optical density at 600 nm (OD600). MIC assays were performed in either BioTek Synergy HT or Tecan InfiniteM200 Pro microplate readers."}, "Haemolysis": {"test": "Haemolysis", "type": "cell-based, sheep", "conditions": "sheep, defibrinated sheep red blood cells, 1 h, vs Triton X-100 100% lysis", "description": "as §1"}, "[4]": {"system": "P. aeruginosa PA14 mexA transposon mutant", "test": "microbe, parasite or virus in culture", "type": "cell-based", "conditions": "Pseudomonas aeruginosa", "description": "as §2\n(§3) P. aeruginosa PA14 transposon mutants were generated by the Ausubel Lab (https://pa14.mgh.harvard.edu/cgi-bin/pa14/home.cgi)[67]. The MICs of fluorofolin and TMP against strains with disrupted MexA, MexB and OprM were determined as above and compared to the parental strain. As transposon mutants in MexB were represented twice in this collection, the MIC was confirmed across both mutant strains."}, "[5]": {"system": "P. aeruginosa PA14 mexB transposon mutant", "test": "microbe, parasite or virus in culture", "type": "cell-based", "conditions": "Pseudomonas aeruginosa", "description": "as §2, §3"}, "[6]": {"system": "P. aeruginosa PA14 oprM transposon mutant", "test": "microbe, parasite or virus in culture", "type": "cell-based", "conditions": "Pseudomonas aeruginosa", "description": "as §2, §3"}, "P. aeruginosa PA14 [7]": {"system": "P. aeruginosa PA14", "type": "cell-based, Pseudomonas aeruginosa", "conditions": "PA14, 0.25 h", "description": "Overnight P. aeruginosa PA14 or E. coli lptD4213 cultures were diluted 1:100 and grown to mid exponential phase at 37 °C. Cultures were diluted 1:10 into PBS and treated with antibiotics for 15 min. P. aeruginosa PA14 was stained with TO-PRO-3 (640 nm excitation, 670/30 nm emission) to measure cell membrane integrity. E. coli lptD4213 was stained with both TO-PRO-3 and DiOC2(3) (ThermoFisher B34950) to measure cell membrane integrity and membrane potential. DiOC2(3) was evaluated as a ratio of green (488 nm excitation, 525/50 nm emission) to red (488 nm excitation, 610/20 nm emission)[66]. The LSRII flow cytometer (BD Biosciences) at the Flow Cytometry Resource Facility, Princeton University, was used to measure the fluorescent intensities of both dyes in response to antibiotic treatment. 100,000 events were recorded for each data file. Gates for permeabilization were determined using polymixin B (Sigma-Aldrich P1004) and untreated controls. Gates for depolarization were determined using carbonyl cyanide m-chlorophenyl hydrazone (CCCP) as a positive control. Data were analysed using FlowJo v.10 software."}, "[8]": {"conditions": "2× MIC (fluorofolin 6.3, TMP 250 μg ml^−1), one value per replicate"}}, "note": "Several values for one entry are separate records, joined by “and”; a condition that tells them apart may be missing. Equal entries are not always repeated. Where two headings read alike, the source gives them in different places.", "data": [{"smiles": "Nc1nc(N)c2c(ccc3c2ccn3Cc2ccc(-c3ccccc3)cc2)n1", "note": "[IRS-16]", "values": [{"measurement": "% Hemolysis, Mean", "setting": "sheep red blood cells; 0.78125 ug/mL", "result": 6.068, "unit": "%"}, {"measurement": "% Hemolysis, Mean", "setting": "sheep red blood cells; 1.5625 ug/mL", "result": 12.9642, "unit": "%"}, {"measurement": "% Hemolysis, Mean", "setting": "sheep red blood cells; 3.125 ug/mL", "result": 26.947, "unit": "%"}, {"measurement": "% Hemolysis, Mean", "setting": "sheep red blood cells; 6.25 ug/mL", "result": 25.0196, "unit": "%"}, {"measurement": "% Hemolysis, Mean", "setting": "sheep red blood cells; 12.5 ug/mL", "result": 26.9567, "unit": "%"}, {"measurement": "% Hemolysis, Mean", "setting": "sheep red blood cells; 25 ug/mL", "result": 30.487, "unit": "%"}, {"measurement": "% Hemolysis, Mean", "setting": "sheep red blood cells; 50 ug/mL", "result": 39.1325, "unit": "%"}, {"measurement": "MIC", "setting": "P. aeruginosa", "result": "> 50", "unit": "µg/mL"}]}, {"smiles": "COc1cc(Cc2cnc(N)nc2N)cc(OC)c1OC", "note": "[Trimethoprim, trimethoprim, reference compound]", "values": [{"measurement": "change of AICAR and dUMP", "setting": "[1]; 2× MIC", "result": "significant upregulation"}, {"measurement": "Normalized Ion Counts AICAR", "setting": "[1]; [8]", "result": "1099947 and 1907694 and 151411"}, {"measurement": "Normalized Ion Counts GAR", "setting": "[1]; [8]", "result": "163607 and 121038 and 24881.8"}, {"measurement": "Normalized Ion Counts dUMP", "setting": "[1]; [8]", "result": "2000000 and 3000000"}, {"measurement": "PA14 CFU/mL, Mean", "setting": "P. aeruginosa PA14 [2]; Time 0 h", "result": 197000, "unit": "CFU/mL"}, {"measurement": "PA14 CFU/mL, Mean", "setting": "P. aeruginosa PA14 [2]; Time 1 h", "result": 178000, "unit": "CFU/mL"}, {"measurement": "PA14 CFU/mL, Mean", "setting": "P. aeruginosa PA14 [2]; Time 2 h", "result": 187000, "unit": "CFU/mL"}, {"measurement": "PA14 CFU/mL, Mean", "setting": "P. aeruginosa PA14 [2]; Time 4 h", "result": 338889, "unit": "CFU/mL"}, {"measurement": "MIC", "setting": "[3]; P. aeruginosa PA14", "result": 125, "unit": "µg/mL"}, {"measurement": "MIC", "setting": "[3]; Pseudomonas aeruginosa, Wildtype PA14, control for each drug stock, read-out: MIC", "result": 125, "unit": "µg/mL"}, {"measurement": "hemolysis at 1 h, 0.78125 ug/mL", "setting": "Haemolysis; 0.78125 ug/mL", "result": 0.423, "unit": "%"}, {"measurement": "hemolysis at 1 h, 1.5625 ug/mL", "setting": "Haemolysis; 1.5625 ug/mL", "result": 0.123, "unit": "%"}, {"measurement": "hemolysis at 1 h, 3.125 ug/mL", "setting": "Haemolysis; 3.125 ug/mL", "result": 0.0766, "unit": "%"}, {"measurement": "hemolysis at 1 h, 6.25 ug/mL", "setting": "Haemolysis; 6.25 ug/mL", "result": 1.27, "unit": "%"}, {"measurement": "hemolysis at 1 h, 12.5 ug/mL", "setting": "Haemolysis; 12.5 ug/mL", "result": 0.258, "unit": "%"}, {"measurement": "hemolysis at 1 h, 25 ug/mL", "setting": "Haemolysis; 25 ug/mL", "result": 0.606, "unit": "%"}, {"measurement": "hemolysis at 1 h, 50 ug/mL", "setting": "Haemolysis; 50 ug/mL", "result": 4.08, "unit": "%"}, {"measurement": "MIC", "setting": "[4]", "result": 50, "unit": "µg/mL"}, {"measurement": "MIC", "setting": "[5]", "result": 25, "unit": "µg/mL"}, {"measurement": "MIC", "setting": "[6]", "result": 25, "unit": "µg/mL"}, {"measurement": "Permeabilized (TO-PRO-3 gate)", "setting": "P. aeruginosa PA14 [7]", "result": 0.42}]}]}
